For assay [1], the target named is T1, Adrenergic β2 (H292 cells) (Homo sapiens, UniProt P07550).
T1 construct: endogenous in cells; host or cells: H292 cells
Description: Adrenergic β2 Mediated cAMP Production, single concentration 1 μM. The format is cell-based. Conditions: percentage of the maximum response generated by 1E-07M formoterol; for activation at 1 µM: NCI-H292, 1 μM compound, read-out: β2 (% effect at 1 μM). As for the experimental part:
The following experimental procedure was used to measure the beta-2% effect at 1 μM for the compounds of Examples 116-263. Adrenergic β2 Mediated cAMP Production Cell Preparation
H292 cells are grown in 225 cm2 flasks incubator at 37° C., 5% CO2 in RPMI medium containing 10% (v/v) FBS (foetal bovine serum) and 2 mM L-glutamine.
Compounds were prepared by an initial first dilution into DMSO to give 1 mM stock concentration. This was followed by a 1 in 10 dilution of the stock concentration (10 μl stock compound+90 μl DMSO) to give 0.1 mM compound.
A compound addition plate was prepared by making a further 1 in 25 dilution in assay buffer (HBSS solution containing 10 mM HEPES pH7.4 and 5 mM glucose) containing 4% dimethylsulfoxide. The final compound concentration in assay is 1 μM.
Adherent H292 cells are removed from tissue culture flasks by treatment with Accutase™ cell detachment solution for 15 minutes. Flasks are incubated for 15 minutes in a humidified incubator at 37° C., 5% CO2. Detached cells are re-suspended in RPMI media (containing 10% (v/v) FBS and 2 mM L-glutamine) at 0.1×10^6 cells per mL. 10000 cells in 100 μL are added to each well of a tissue-culture-treated 96-well plate and the cells incubated overnight in a humidified incubator at 37° C., 5% CO2. The culture media is removed and cells are washed twice with 100 μL assay buffer and replaced with 50 μL assay buffer (HBSS solution containing 10 mM HEPES pH7.4 and 5 mM glucose). Cells are rested at room temperature for 20 minutes after which time 25 μL of rolipram (1.2 mM made up in assay buffer) is added. Cells are incubated with rolipram for 10 minutes after which time 25 μl test compounds are added and the cells are incubated for 60 minutes at room temperature. The final rolipram concentration in the assay is 300 μM and final vehicle concentration is 1% (v/v) dimethylsulphoxide. The reaction is stopped by removing supernatants, washing once with 100 μL assay buffer and replacing with 50 μL lysis buffer. The cell monolayer is frozen at −80° C. for 30 minutes (or overnight).
AlphaScreen™ cAMP Detection
The concentration of cAMP (cyclic adenosine monophosphate) in the cell lysate is determined using AlphaScreen™ methodology. The frozen cell plate is thawed for 20 minutes on a plate shaker then 10 μL of the cell lysate is transferred to a 96-well white plate. 40 μL of mixed AlphaScreen™ detection beads (containing equal volumes of donor beads (pre-incubated with biotinylated cAMP in the dark for 30 minutes) and acceptor beads is added to each well and the plate incubated at room temperature for 3 hours in the dark. The AlphaScreen™ signal is measured using an EnVision spectrophotometer (Perkin-Elmer Inc.) with the recommended manufacturer's settings. Concentration of cAMP produced per well were calculated with reference to the cAMP standard curve determined in the same experiment and expressed as a percentage of the maximum response generated by 1E-07M formoterol.

Assay [2] concerns the target T2, human muscarinic acetylcholine M3 receptor (M3-ACh) (Homo sapiens, UniProt P20309).
T2 construct: expressed in transfected cells; host or cells: CHO-K1 (Chinese Hamster Ovary) cell membranes
Description: Muscarinic 3 Receptor Binding Assay, % inhibition specific binding at 1 μM. As to conditions: 1 μM compound, % inhibition specific [3H]-NMS binding. As for the experimental part: The following experimental procedure was used to determine the M3% inhibition at 1 μM of the compounds of Examples 116-263.
Muscarinic 3 Receptor Binding Assay
The activity (% inhibition specific binding) of compounds -on the M3 receptor is determined by competition binding of [^3H]N-methyl scopolamine (NMS) to CHO-K1 (Chinese Hamster Ovary) cell membranes expressing the human muscarinic acetylcholine M3 receptor (M3-ACh) in a scintillation proximity assay (SPA) format.
SPA beads are precoated with membranes and then incubated at 2 mg of beads per well with 1 μM compound of the invention, [^3H]NMS at 0.1 nM, quarter Kd (experimentally determined dissociation constant) and assay buffer (20 mM HEPES pH 7.4 containing 5 mM MgCl2). The assay is conducted in a final volume of 200 μL, in the presence of 1% (v/v) dimethyl sulphoxide (DMSO). Total binding of [^3H]NMS is determined in the absence of competing compound and non-specific binding of [^3H]NMS is determined in the presence of 1 μM atropine. The plates are incubated for 16 hours at room temperature and then read on Wallac Microbeta™ using a normalised ^3H protocol. The compound activity at 1 defined as % inhibition specific [^3H]-NMS binding, is determined.

This note sets out measurements from patent US8148373B2, “Compounds” (AstraZeneca AB, priority 2008, dated 2012).

The term inhibition denotes the relative decrease from the control value, in per cent.

T1 sequence (P07550 whole entry): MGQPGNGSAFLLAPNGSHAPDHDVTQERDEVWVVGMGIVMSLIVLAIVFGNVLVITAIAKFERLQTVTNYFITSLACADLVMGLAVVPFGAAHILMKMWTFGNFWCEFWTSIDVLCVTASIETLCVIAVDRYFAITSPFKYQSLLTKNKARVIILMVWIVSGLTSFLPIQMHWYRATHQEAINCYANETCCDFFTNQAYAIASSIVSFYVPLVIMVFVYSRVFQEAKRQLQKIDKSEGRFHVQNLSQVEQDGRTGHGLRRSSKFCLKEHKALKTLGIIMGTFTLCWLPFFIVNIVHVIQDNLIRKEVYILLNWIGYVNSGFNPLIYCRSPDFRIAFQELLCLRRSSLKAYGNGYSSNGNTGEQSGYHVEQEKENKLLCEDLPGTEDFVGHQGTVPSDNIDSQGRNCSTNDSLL
T2 sequence (P20309 whole entry): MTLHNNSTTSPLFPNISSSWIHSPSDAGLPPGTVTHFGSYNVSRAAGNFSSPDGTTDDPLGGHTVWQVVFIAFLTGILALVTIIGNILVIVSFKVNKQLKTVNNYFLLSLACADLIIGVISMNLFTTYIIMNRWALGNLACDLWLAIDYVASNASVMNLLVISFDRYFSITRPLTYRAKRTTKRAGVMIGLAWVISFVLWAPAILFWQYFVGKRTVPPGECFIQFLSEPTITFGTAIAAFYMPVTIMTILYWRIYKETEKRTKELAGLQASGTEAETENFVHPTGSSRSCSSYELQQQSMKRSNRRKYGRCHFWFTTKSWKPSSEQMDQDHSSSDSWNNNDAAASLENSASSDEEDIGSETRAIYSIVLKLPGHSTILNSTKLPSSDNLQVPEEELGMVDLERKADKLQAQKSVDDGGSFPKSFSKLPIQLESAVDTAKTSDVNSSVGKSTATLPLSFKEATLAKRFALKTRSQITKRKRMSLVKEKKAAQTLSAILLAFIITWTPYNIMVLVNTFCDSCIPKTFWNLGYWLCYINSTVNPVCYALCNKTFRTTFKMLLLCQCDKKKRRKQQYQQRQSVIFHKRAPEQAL

`CC(C)n1nnc2cc(C(=O)N3CCOC4(CCN(Cc5cc(F)cc(CCNC[C@H](O)c6ccc(O)c7[nH]c(=O)sc67)c5)CC4)C3)ccc21` [Example 142, (R)-7-(2-(3-fluoro-5-((4-(1-isopropyl-1H-benzo[d][1,2,3]triazole-5-carbonyl)-1-oxa-4,9-diazaspiro[5.5]undecan-9-yl)methyl)phenethylamino)-1-hydroxyethyl)-4-hydroxybenzo[d]thiazol-2(3H)-one]: in assay [1], the activation at 1 µM is 100%. The inhibition at 1 µM in assay [2] is -3%.

For the molecule `COc1ccccc1CC(=O)N1CCOC2(CCN(Cc3cc(F)cc(CCNC[C@H](O)c4ccc(O)c5[nH]c(=O)sc45)c3)CC2)C1` [Example 117, (R)-7-(2-(3-fluoro-5-((4-(2-(2-methoxyphenyl)acetyl)-1-oxa-4,9-diazaspiro[5.5]undecan-9-yl)methyl)phenethylamino)-1-hydroxyethyl)-4-hydroxybenzo[d]thiazol-2(3H)-one], in assay [1], the activation at 1 µM is 101%. For the same molecule, the inhibition at 1 µM in assay [2] came to 22%.

In the case of `CCOc1ccc(O)c(C(=O)N2CCOC3(CCN(Cc4cc(F)cc(CCNC[C@H](O)c5ccc(O)c6[nH]c(=O)sc56)c4)CC3)C2)c1` [Example 154, (R)-7-(2-(3-((4-(5-ethoxy-2-hydroxybenzoyl)-1-oxa-4,9-diazaspiro[5.5]undecan-9-yl)methyl)-5-fluorophenethylamino)-1-hydroxyethyl)-4-hydroxybenzo[d]thiazol-2(3H)-one], the activation at 1 µM in assay [1] turned out to be 102%. Also, the inhibition at 1 µM in assay [2] was 28%.

In the case of `O=C(Cc1ccsc1)N1CCOC2(CCN(CCOc3ccc(CNC[C@H](O)c4ccc(O)c5[nH]c(=O)sc45)cc3)CC2)C1` [Example 233, (R)-4-hydroxy-7-(1-hydroxy-2-(4-(2-(4-(2-(thiophen-3-yl)acetyl)-1-oxa-4,9-diazaspiro[5.5]undecan-9-yl)ethoxy)benzylamino)ethyl) benzo[d]thiazol-2(3H)-one], the activation at 1 µM in assay [1] was found to be 82%. The inhibition at 1 µM in assay [2] is 51%.

Regarding `Cc1ccsc1C(=O)N1CCOC2(CCN(CCOc3ccc(CNC[C@H](O)c4ccc(O)c5[nH]c(=O)sc45)cc3)CC2)C1` [Example 232, (R)-4-hydroxy-7-(1-hydroxy-2-(4-(2-(4-(3-methylthiophene-2-carbonyl)-1-oxa-4,9-diazaspiro[5.5]undecan-9-yl)ethoxy)benzylamino)ethyl) benzo[d]thiazol-2(3H)-one], the activation at 1 µM in assay [1] was determined as 83%. In assay [2], the inhibition at 1 µM was found to be 56%.

`O=C(c1ccc(-c2ccccc2)cc1)N1CCOC2(CCN(Cc3cc(F)cc(CCNC[C@H](O)c4ccc(O)c5[nH]c(=O)sc45)c3)CC2)C1` [Example 169, (R)-7-(2-(3-((4-(biphenylcarbonyl)-1-oxa-4,9-diazaspiro[5.5]undecan-9-yl)methyl)-5-fluorophenethylamino)-1-hydroxyethyl)-4-hydroxybenzo[d]thiazol-2(3H)-one]: the “β2 (% effect at 1 μM)” value in assay [1] (1 μM compound) turned out to be 92%. In assay [2] (1 µM), the “M3 (% inhibition at 1 μM)” value is −2%.

Take `O=C(c1ccc2[nH]ccc2c1)N1CCOC2(CCN(Cc3cc(F)cc(CCNC[C@H](O)c4ccc(O)c5[nH]c(=O)sc45)c3)CC2)C1` [Example 138, (R)-7-(2-(3-((4-(1H-indole-5-carbonyl)-1-oxa-4,9-diazaspiro[5.5]undecan-9-yl)methyl)-5-fluorophenethylamino)-1-hydroxyethyl)-4-hydroxybenzo[d]thiazol-2(3H)-one]: the activation at 1 µM in assay [1] worked out at 92%. Moreover, in assay [2], the inhibition at 1 µM was determined as 27%.

As to `Cc1ccc2[nH]c(C(=O)N3CCOC4(CCN(Cc5cc(F)cc(CCNC[C@H](O)c6ccc(O)c7[nH]c(=O)sc67)c5)CC4)C3)cc2c1` [Example 157, (R)-7-(2-(3-fluoro-5-((4-(5-methyl-1H-indole-2-carbonyl)-1-oxa-4,9-diazaspiro[5.5]undecan-9-yl)methyl)phenethylamino)-1-hydroxyethyl)-4-hydroxybenzo[d]thiazol-2(3H)-one], the activation at 1 µM in assay [1] was 102%. The inhibition at 1 µM in assay [2] is 13%.

`O=C(c1cnc(-c2ccccc2)[nH]1)N1CCOC2(CCN(Cc3cc(F)cc(CCNC[C@H](O)c4ccc(O)c5[nH]c(=O)sc45)c3)CC2)C1` [Example 175, (R)-7-(2-(3-fluoro-5-((4-(2-phenyl-1H-imidazole-5-carbonyl)-1-oxa-4,9-diazaspiro[5.5]undecan-9-yl)methyl)phenethylamino)-1-hydroxyethyl)-4-hydroxybenzo[d]thiazol-2(3H)-one]: in assay [1], the activation at 1 µM stood at 94%. Further, in assay [2], the inhibition at 1 µM amounted to 3%.

As to `O=C(CCCc1cccs1)N1CCOC2(CCN(CCCCCCCCCNC[C@H](O)c3ccc(O)c4[nH]c(=O)sc34)CC2)C1` [Example 183, (R)-4-hydroxy-7-(1-hydroxy-2-(9-(4-(4-(thiophen-2-yl)butanoyl)-1-oxa-4,9-diazaspiro[5.5]undecan-9-yl)nonylamino)ethyl)benzo[d]thiazol-2(3H)-one], the activation at 1 µM in assay [1] was 91%. In addition, in assay [2], the inhibition at 1 µM was determined as 97%.

As for `O=C(c1cc2ccccc2s1)N1CCOC2(CCN(CCCCCCCCCNC[C@H](O)c3ccc(O)c4[nH]c(=O)sc34)CC2)C1` [Example 194, (R)-7-(2-(9-(4-(benzo[b]thiophene-2-carbonyl)-1-oxa-4,9-diazaspiro[5.5]undecan-9-yl)nonylamino)-1-hydroxyethyl)-4-hydroxybenzo[d]thiazol-2(3H)-one], in assay [1], the activation at 1 µM was 92%. Besides, the inhibition at 1 µM in assay [2] was found to be 85%.

Consider `O=C(c1cc(-c2ccccc2)n[nH]1)N1CCOC2(CCN(Cc3cc(F)cc(CCNC[C@H](O)c4ccc(O)c5[nH]c(=O)sc45)c3)CC2)C1` [Example 155, (R)-7-(2-(3-fluoro-5-((4-(3-phenyl-1H-pyrazole-5-carbonyl)-1-oxa-4,9-diazaspiro[5.5]undecan-9-yl)methyl)phenethylamino)-1-hydroxyethyl)-4-hydroxybenzo[d]thiazol-2(3H)-one], for which, in assay [1], the activation at 1 µM was 101%. Besides, the inhibition at 1 µM in assay [2] amounted to 4%.

With `O=C(c1ccc2cc[nH]c2c1)N1CCOC2(CCN(Cc3cc(F)cc(CCNC[C@H](O)c4ccc(O)c5[nH]c(=O)sc45)c3)CC2)C1` [Example 140, (R)-7-(2-(3-((4-(1H-indole-6-carbonyl)-1-oxa-4,9-diazaspiro[5.5]undecan-9-yl)methyl)-5-fluorophenethylamino)-1-hydroxyethyl)-4-hydroxybenzo[d]thiazol-2(3H)-one], in assay [1], the activation at 1 µM turned out to be 109%. In assay [2], the inhibition at 1 µM came to 76%.

For `O=C(CCc1cccs1)N1CCOC2(CCN(CCOc3ccc(CNC[C@H](O)c4ccc(O)c5[nH]c(=O)sc45)cc3)CC2)C1` [Example 248, (R)-4-hydroxy-7-(1-hydroxy-2-(4-(2-(4-(3-(thiophen-2-yl)propanoyl)-1-oxa-4,9-diazaspiro[5.5]undecan-9-yl)ethoxy)benzylamino)ethyl) benzo[d]thiazol-2(3H)-one], the activation at 1 µM in assay [1] was determined as 70%. In assay [2], the inhibition at 1 µM was 44%.
